Reference: US20110183336A1, “Method to Predict Responsiveness of Breast Cancer to Polyamine-Type Chemotherapy” (THE REGENTS OF THE UNIVERSITY OF CALIFORNIA, priority 2007, published 2011)
Read-outs that look alike come from different tables or passages of the source.

How the values were obtained:
T47D cells [1] = test: BrdU incorporation and cell cycle distribution; format: cell-based, human; conditions: T47D (FIG. 5); 0.3, 10 and 300 uM; 48 and 72 hrs
Procedure: (§1) FIGS. 5A and 5B. Effect of CGC-11047 on T47D cells with respect to cell cycle and apoptosis. In FIG. 5A, cells were treated for 72 hours with 0, 0.3, 10, or 100 μM CGC-11047. Shown are percentage of the cell population is G0-G1, S, or G2-M phase of cell growth. In FIG. 5B, cells were treated for […], 48, or 72 hours with 0.3, 10, or 300 μM CGC-11047. Shown is the caspase activity (apoptosis) of treated cells within each condition compared to untreated controls.
(§2) BrdU cell staining and labeling: After incubation of cells with CGC-11047 at specified concentrations for 24, 48, and 72 hours, cells were pulsed with a final BrdU concentration of 10 uM for 30 minutes. Cells were then fixed with −20° C. 70% ethanol overnight. Fixed cells were incubated with 2N HCl for 5-7 minutes to denature DNA. Cell were then rinsed with 1× PBS to neutralize HCl.
(§3) Cells were incubated with primary donkey anti-BrdU antibody (diluted 1:100 in 0.5% PBS-tween20) for 1 hour then rinsed well with 0.5% PBS-tween20. Cells were incubated with Hoechst 33642 (diluted 1:2000) and secondary anti-donkey antibody (diluted 1:500) for 45 minutes and washed well with PBS-tween. […]
(§4) Select sensitive cell lines were treated with CGC-11047 at 0.3, 10 and 300 uM. BrdU incorporation was measured and cell cycle distribution was analyzed at 48 and 72 hrs. Apoptosis was measured using the Promega Caspase Glo 3/7 assay.

HCC70 cells [2] = test: BrdU incorporation and cell cycle distribution; format: cell-based, human; conditions: select sensitive cell lines except T47D (FIG. 4: HCC70); 0.3, 10 and 300 uM; 48 and 72 hrs
Procedure: as §1, with “4A” for “5A”, “4B.” for “5B.”, “HCC70” for “T47D”, “4A,” for “5A,”, “4B,” for “5B,”
as §2, §3, §4

HCC70 cells [3] = test: Caspase Glo 3/7 assay (apoptosis); format: cell-based, human; conditions: select sensitive cell lines except T47D (FIG. 4: HCC70); 0.3, 10 and 300 uM
Procedure: as §1, with “4A” for “5A”, “4B.” for “5B.”, “HCC70” for “T47D”, “4A,” for “5A,”, “4B,” for “5B,”
(§5) Caspase Glo assay: Apoptosis was measured using the Promega Caspase Glo 3/7 assay (Promega, Madison, Wis.). Lyophilized pellet was eluted in solvent to make working Caspase Glo reagent. After incubation of cells with CGC-11047 at specified concentrations for 24, 48, and 72 hours, 50 ul of Caspase Glo reagent was added to the wells. After an incubation time of 1 hour, luminescence was measured using a luminometer.
as §4

T47D cells [4] = test: Caspase Glo 3/7 assay (apoptosis); format: cell-based, human; conditions: T47D (FIG. 5); 0.3, 10 and 300 uM
Procedure: as §1, §5, §4

[5] = test system: panel of 42 breast cancer cell lines and 6 non-cancerous breast cell lines; test: Cell growth inhibition assay, whole panel; format: cell-based; conditions: whole breast cell line panel, 72 h
From the text: To better delineate the response of breast cancer cells to conformationally-restricted polyamines, we studied the anti-proliferation activity of CGC-11047 (SL-11047 or Compound 58 in Table 1) among the panel of 42 breast cancer cell lines and 6 non-cancerous breast cell lines (e.g., human mammary epithelial cells, HMEC) of known subtype (basal or luminal) with a plethora of genomic background mimicking the human breast tumors. Extensive genomic background of these cell lines have been reported by Neve et al. (2006).
Cell culture: Breast cell lines were obtained from the ATCC and from collections developed in the laboratories of Drs. Steve Ethier and Adi Gazdar.
Cell growth inhibition assay and data analysis: Cells were plated at proper density in 96-well plates such that they would remain in log growth at the end of assay time. The cells were allowed to attach overnight before being exposed to CGC-11047 for 72 h. Drugs were dissolved in water as 100 mM stock. […] The cell growth was determined using Cell Titer Glo (CTG) assay (CellTiter-Glo Luminescent Cell Viability Assay, Promega, Madison, Wis.), with slight modification form manufacturer's protocol, at day 0 (time when drug was added) and at day 3 of drug exposure. […] Luminescence from the assay was recorded using BIO-TEK FLx800. […]

CCNCCCNC/C=C\CNCCCNCC [CGC-11047]
cell cycle distribution / BrdU incorporation (T47D cells [1]): very little changes in the cell cycle
cell cycle distribution / BrdU incorporation (HCC70 cells [2]): growth inhibition is mainly caused by the delay in cell cycle, a G1 arrest
apoptosis (caspase 3/7 activity) (HCC70 cells [3]): very little apoptosis detected
apoptosis (caspase 3/7 activity) (T47D cells [4]): significant accumulation of apoptosis
GI50 ([5]; Homo sapiens, read-out: median GI50): ~40 µM
GI50 ([5]; units given in the value, read-out: GI50 range of the cell lines tested): 0.4 to 5000 µM
